{"source": "paper PMC11143095", "about": "“Chemically engineered essential oils prepared through thiocyanation under solvent-free conditions: chemical and bioactivity alteration” (Natural Products and Bioprospecting, 2024)", "target": "T1, AChE from Electrophorus electricus (Electrophorus electricus, UniProt O42275)", "T1 construct": "purchased Sigma-Aldrich (St. Louis, MO, USA)", "T1 sequence (O42275 24-633)": "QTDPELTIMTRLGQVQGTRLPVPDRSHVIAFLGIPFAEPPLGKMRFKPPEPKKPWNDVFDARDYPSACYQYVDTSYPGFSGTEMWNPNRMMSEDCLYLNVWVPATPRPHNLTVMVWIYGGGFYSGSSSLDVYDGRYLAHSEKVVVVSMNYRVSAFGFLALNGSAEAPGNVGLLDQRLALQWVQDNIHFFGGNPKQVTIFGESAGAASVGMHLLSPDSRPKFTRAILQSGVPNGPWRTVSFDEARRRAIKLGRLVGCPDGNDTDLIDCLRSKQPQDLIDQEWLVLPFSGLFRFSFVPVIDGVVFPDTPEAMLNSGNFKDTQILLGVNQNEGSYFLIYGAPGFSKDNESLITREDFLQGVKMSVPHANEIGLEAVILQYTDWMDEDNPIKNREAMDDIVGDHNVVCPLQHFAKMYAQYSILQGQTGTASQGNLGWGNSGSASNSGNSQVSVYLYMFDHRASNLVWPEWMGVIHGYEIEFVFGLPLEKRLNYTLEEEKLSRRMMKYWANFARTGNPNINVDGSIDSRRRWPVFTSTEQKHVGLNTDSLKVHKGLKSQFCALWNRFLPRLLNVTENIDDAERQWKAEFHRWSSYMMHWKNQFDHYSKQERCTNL", "test": "biochemical", "settings": "for IC50: Ellman's reagent, microplate, 37 °C, pH 7.5, read-out: half maximal inhibitory concentration (IC50) against AChE", "procedure": "Microplate assays utilizing Ellman’s reagent were performed to quantitatively assess the inhibitory activity of the isolated compounds against AChE [67].\nAmmonium thiocyanate, sodium thiosulfate pentahydrate, anhydrous sodium sulfate and iodine were purchased from Cicarelli Laboratorios (San Lorenzo, Santa Fe). AChE from Electrophorus electricus EC 3.1.1.7, Fast blue salt B (FBB), α-naphthol, α-naphthyl acetate (α-NAc), and CDCl3, were purchased from Sigma-Aldrich (St. Louis, MO, USA). Acetonitrile (LCMS grade) was acquired from Carlo Erba Reagents (Val de Reuil, France) and formic acid from Merck. Aluminium TLC sheets coated with Silica gel 60 F were purchased from Merck (Darmstadt, Germany). Agar was purchased from Britania (Bs. As., Argentina).\nInhibition percentage determinations were carried out using the method applied by Osella et al.. Wells were filled in triplicate with AChE solution (in 0.1 M phosphate buffer, pH 7.5, and 13.7 µU/mL end concentration per well), Ellman’s reagent (DTNB, 5,5dithio-bis-(2-nitrobenzoic acid)), the same buffer solution (0.31 mM end concentration per well) and 10 µL of test compound in DMSO solution (0.05 µM end concentration per well). […] The enzymatic reaction was initiated by addition of acetylthiocholine iodide (0.46 mM end concentration per well). The final volume per well was 270 µL. The plate was shaken for 2 s and the increase in absorbance at 405 nm was monitored at 37 °C for 15 min. For IC50 determination, ten serial dilutions of the compounds were prepared in DMSO, following equally spaced points on a neperian logarithm scale, starting at 2.16 mM and finishing at 0.00023 mM (end concentration per well: 80.00 to 0.00839 µM). IC50 calculated using Prism V5.01 (GraphPad Software Inc., La Jolla, CA, USA) applying a non linear regression curve fit for a log[inhibitor] vs. normalized answer model with variable slope.", "data": [{"smiles": "Cc1cc(Sc2cc(C)c(O)cc2C(C)C)c(C(C)C)cc1O", "note": "[compound 2, 4,4′-thiobis(5-isopropyl-2-methylphenol)]", "values": [{"measurement": "IC50", "result": "158 ± 59", "unit": "nM"}]}, {"smiles": "Cc1ccc(C(C)C)cc1O", "note": "[carvacrol, reference compound]", "values": [{"measurement": "activity against AChE (in words)", "result": "inactive"}]}, {"smiles": "Cc1cc(Sc2nsc(Sc3cc(C)c(O)cc3C(C)C)n2)c(C(C)C)cc1O", "note": "[compound 4]", "values": [{"measurement": "IC50", "result": "34 ± 16", "unit": "nM"}]}, {"smiles": "Cc1cc(SC#N)c(C(C)C)cc1O", "note": "[compound 1, 5-isopropyl-2-methyl-4-thiocyanatophenol]", "values": [{"measurement": "IC50", "result": "4086 ± 35", "unit": "nM"}]}, {"smiles": "Cc1cc(Sc2nsc(-c3cc(C)c(O)cc3C(C)C)n2)c(C(C)C)cc1O", "note": "[compound 3, 4-((5-(4-hydroxy-2-isopropyl-5-methylphenyl)-1,2,4-thiadiazol-3-yl)thio)-5-isopropyl-2-methylphenol]", "values": [{"measurement": "IC50", "result": "56 ± 25", "unit": "nM"}]}]}
